Assay results taken from ChEMBL document CHEMBL1141715, “Novel BK channel openers containing dehydroabietic acid skeleton: structure-activity relationship for peripheral substituents on ring C” (Bioorg Med Chem Lett, 2008).

The molecules below were run against Calcium-activated potassium channel subunit alpha-1 (Homo sapiens) (UniProt Q12791) (assay: Channel opening activity at human BKalpha channel expressed in CHOK1 cells assessed as ionic current amplitude at 30 uM at holding potential of -90 mV by population patch clamp technique relative to untreated control). Conditions: CHO-K1.
Calcium-activated potassium channel subunit alpha-1 (Homo sapiens), sequence (Q12791 whole entry): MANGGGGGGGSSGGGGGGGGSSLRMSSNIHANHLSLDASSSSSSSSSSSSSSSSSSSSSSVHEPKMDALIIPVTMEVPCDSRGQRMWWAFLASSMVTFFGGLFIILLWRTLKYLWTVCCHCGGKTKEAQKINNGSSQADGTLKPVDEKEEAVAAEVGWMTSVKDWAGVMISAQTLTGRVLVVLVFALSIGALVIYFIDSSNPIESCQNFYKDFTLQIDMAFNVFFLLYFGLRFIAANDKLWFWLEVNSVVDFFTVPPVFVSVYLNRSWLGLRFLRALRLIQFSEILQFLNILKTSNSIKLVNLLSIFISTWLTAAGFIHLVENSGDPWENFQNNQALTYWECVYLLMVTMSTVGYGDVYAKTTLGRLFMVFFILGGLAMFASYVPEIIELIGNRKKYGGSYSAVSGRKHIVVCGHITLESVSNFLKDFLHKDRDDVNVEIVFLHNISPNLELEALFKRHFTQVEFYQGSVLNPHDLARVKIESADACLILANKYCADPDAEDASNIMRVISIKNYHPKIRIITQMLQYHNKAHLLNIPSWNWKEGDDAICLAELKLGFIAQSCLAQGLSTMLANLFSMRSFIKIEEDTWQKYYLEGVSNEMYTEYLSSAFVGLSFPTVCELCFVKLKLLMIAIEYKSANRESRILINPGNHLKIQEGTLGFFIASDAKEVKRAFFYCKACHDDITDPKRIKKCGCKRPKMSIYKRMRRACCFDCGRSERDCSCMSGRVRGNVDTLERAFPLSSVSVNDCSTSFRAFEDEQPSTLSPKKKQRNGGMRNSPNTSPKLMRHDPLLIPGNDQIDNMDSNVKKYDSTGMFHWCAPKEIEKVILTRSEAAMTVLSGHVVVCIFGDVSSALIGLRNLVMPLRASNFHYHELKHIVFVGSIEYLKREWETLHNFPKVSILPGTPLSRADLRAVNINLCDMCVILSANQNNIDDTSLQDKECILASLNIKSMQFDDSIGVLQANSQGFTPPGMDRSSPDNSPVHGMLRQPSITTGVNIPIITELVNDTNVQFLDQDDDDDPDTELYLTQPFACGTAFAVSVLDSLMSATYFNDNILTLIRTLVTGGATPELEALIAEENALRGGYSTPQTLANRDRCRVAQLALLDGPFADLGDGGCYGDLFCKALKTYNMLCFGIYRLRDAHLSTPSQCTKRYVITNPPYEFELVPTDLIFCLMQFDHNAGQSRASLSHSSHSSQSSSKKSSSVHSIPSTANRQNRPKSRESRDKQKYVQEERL
Assay type: cell-based

Structure (SMILES) | Activity [%]
CCCCCCOc1cc2c(cc1C(C)C)CC[C@H]1[C@](C)(C(=O)O)CCC[C@]21C | 78.7
CC(C)c1cc2c(cc1NC(=O)c1ccccc1C(F)(F)F)[C@@]1(C)CCC[C@@](C)(C(=O)O)[C@@H]1CC2 | 59.4
CC(C)c1cc2c(cc1NC(=O)Nc1cc(Cl)cc(Cl)c1)[C@@]1(C)CCC[C@@](C)(C(=O)O)[C@@H]1CC2 | 151
CC(C)c1cc2c(cc1NC(=S)Nc1cccc(C(F)(F)F)c1)[C@@]1(C)CCC[C@@](C)(C(=O)O)[C@@H]1CC2 | 143
CC(C)c1cc2c(cc1NC(=O)C1CCCCC1)[C@@]1(C)CCC[C@@](C)(C(=O)O)[C@@H]1CC2 | 95.9
CC(=O)Nc1cc2c(cc1C(C)C)CC[C@H]1[C@](C)(C(=O)O)CCC[C@]21C | 96.1
COc1ccc(Cl)cc1NC(=O)Nc1cc2c(cc1C(C)C)CC[C@H]1[C@](C)(C(=O)O)CCC[C@]21C | 94.4
CC(C)c1cc2c(cc1O)[C@@]1(C)CCC[C@@](C)(C(=O)O)[C@@H]1CC2 | 83
CC(C)c1cc2c(cc1NC(=O)Nc1ccccc1)[C@@]1(C)CCC[C@@](C)(C(=O)O)[C@@H]1CC2 | 72.7
CC(C)Oc1cc2c(cc1C(C)C)CC[C@H]1[C@](C)(C(=O)O)CCC[C@]21C | 125
CC(C)c1cc2c(cc1NC(=O)C1CC1)[C@@]1(C)CCC[C@@](C)(C(=O)O)[C@@H]1CC2 | 91.6
CC(C)C(=O)Nc1cc2c(cc1C(C)C)CC[C@H]1[C@](C)(C(=O)O)CCC[C@]21C | 130
CC(C)c1ccc2c(c1N)CC[C@H]1[C@](C)(C(=O)O)CCC[C@]21C | 88.2
CC(C)c1cc2c(cc1NC(=O)Nc1ccc(F)c(Cl)c1)[C@@]1(C)CCC[C@@](C)(C(=O)O)[C@@H]1CC2 | 156
CC(C)c1c(Cl)cc2c(c1Cl)CC[C@H]1[C@](C)(C(=O)O)CCC[C@]21C | 180
CCCCCCCCCCCC(=O)Nc1cc2c(cc1C(C)C)CC[C@H]1[C@](C)(C(=O)O)CCC[C@]21C | 103
CC(C)c1cc2c(cc1OCc1ccc3ccccc3c1)[C@@]1(C)CCC[C@@](C)(C(=O)O)[C@@H]1CC2 | 83.7
CC(C)c1cc2c(cc1NC(=O)CN1CCCCC1)[C@@]1(C)CCC[C@@](C)(C(=O)O)[C@@H]1CC2 | 107
CC(C)c1cc2c(cc1NC(=O)c1cc(C(F)(F)F)cc(C(F)(F)F)c1)[C@@]1(C)CCC[C@@](C)(C(=O)O)[C@@H]1CC2 | 81.8
CC(C)c1cc2c(cc1NC(=O)c1ccc(C(F)(F)F)cc1)[C@@]1(C)CCC[C@@](C)(C(=O)O)[C@@H]1CC2 | 128
CC(C)c1cc2c(cc1NC(=O)Nc1ccc(C(F)(F)F)cc1)[C@@]1(C)CCC[C@@](C)(C(=O)O)[C@@H]1CC2 | 138
CC(C)c1cc2c(cc1NC(=O)Nc1cccc(C(F)(F)F)c1)[C@@]1(C)CCC[C@@](C)(C(=O)O)[C@@H]1CC2 | 99.9
CC(C)c1cc2c(cc1NC(=O)c1ccc(F)cc1)[C@@]1(C)CCC[C@@](C)(C(=O)O)[C@@H]1CC2 | 83.4
COc1ccc(C(=O)Nc2cc3c(cc2C(C)C)CC[C@H]2[C@](C)(C(=O)O)CCC[C@]32C)cc1 | 94.1
CC(C)c1cc2c(cc1NC(=O)Nc1cc(C(F)(F)F)cc(C(F)(F)F)c1)[C@@]1(C)CCC[C@@](C)(C(=O)O)[C@@H]1CC2 | 132

Structure (SMILES) | Activity [%]
CC(C)c1cc2c(cc1NC(=O)Nc1cccc(Cl)c1)[C@@]1(C)CCC[C@@](C)(C(=O)O)[C@@H]1CC2 | 136
CCCCCCCCCOc1cc2c(cc1C(C)C)CC[C@H]1[C@](C)(C(=O)O)CCC[C@]21C | 81.8
CC(C)c1cc2c(cc1OCc1ccc(Cl)cc1)[C@@]1(C)CCC[C@@](C)(C(=O)O)[C@@H]1CC2 | 91.6
CC(C)c1cc2c(cc1NC(=O)c1ccccc1)[C@@]1(C)CCC[C@@](C)(C(=O)O)[C@@H]1CC2 | 90
CC(C)c1cc2c(cc1N)[C@@]1(C)CCC[C@@](C)(C(=O)O)[C@@H]1CC2 | 88.9
CC(C)c1cc2c(cc1NC(=O)c1cccc(C(F)(F)F)c1)[C@@]1(C)CCC[C@@](C)(C(=O)O)[C@@H]1CC2 | 92.5
CCC(=O)Nc1cc2c(cc1C(C)C)CC[C@H]1[C@](C)(C(=O)O)CCC[C@]21C | 90.2
CC(C)c1cc2c(cc1NC(=O)Nc1ccc(Cl)c(C(F)(F)F)c1)[C@@]1(C)CCC[C@@](C)(C(=O)O)[C@@H]1CC2 | 168
CC(C)c1c([N+](=O)[O-])cc2c(c1[N+](=O)[O-])CC[C@H]1[C@](C)(C(=O)O)CCC[C@]21C | 200
CC(C)c1c(N)cc2c(c1N)CC[C@H]1[C@](C)(C(=O)O)CCC[C@]21C | 110
CCNC(=O)Nc1cc2c(cc1C(C)C)CC[C@H]1[C@](C)(C(=O)O)CCC[C@]21C | 89.9
COc1cc2c(cc1C(C)C)CC[C@H]1[C@](C)(C(=O)O)CCC[C@]21C | 85.9
CC(C)c1cc2c(cc1NC(=O)Nc1ccccc1C(F)(F)F)[C@@]1(C)CCC[C@@](C)(C(=O)O)[C@@H]1CC2 | 114
CC(C)c1cc2c(cc1NC(=O)Cc1ccccc1)[C@@]1(C)CCC[C@@](C)(C(=O)O)[C@@H]1CC2 | 90.9
CC(C)c1cc2c(cc1NC(=O)Nc1cc(C(F)(F)F)ccc1Cl)[C@@]1(C)CCC[C@@](C)(C(=O)O)[C@@H]1CC2 | 128
CC(C)c1cc2c(cc1OCc1ccccc1)[C@@]1(C)CCC[C@@](C)(C(=O)O)[C@@H]1CC2 | 89.5
CC(C)c1cc2c(cc1OCCCc1ccccc1)[C@@]1(C)CCC[C@@](C)(C(=O)O)[C@@H]1CC2 | 93.2
COc1ccc(NC(=O)Nc2cc3c(cc2C(C)C)CC[C@H]2[C@](C)(C(=O)O)CCC[C@]32C)cc1 | 107
CCCC(=O)Nc1cc2c(cc1C(C)C)CC[C@H]1[C@](C)(C(=O)O)CCC[C@]21C | 92.4
CCCOc1cc2c(cc1C(C)C)CC[C@H]1[C@](C)(C(=O)O)CCC[C@]21C | 118
CC(C)c1cc2c(cc1NC(=S)Nc1cc(C(F)(F)F)cc(C(F)(F)F)c1)[C@@]1(C)CCC[C@@](C)(C(=O)O)[C@@H]1CC2 | 240
COc1ccccc1C(=O)Nc1cc2c(cc1C(C)C)CC[C@H]1[C@](C)(C(=O)O)CCC[C@]21C | 86.5
CC(C)c1cc2c(cc1NC(=O)c1ccc(Cl)cc1)[C@@]1(C)CCC[C@@](C)(C(=O)O)[C@@H]1CC2 | 108
CC(C)c1cc2c(cc1NC(=O)Nc1ccc(F)c(F)c1)[C@@]1(C)CCC[C@@](C)(C(=O)O)[C@@H]1CC2 | 139
